In US20150216903A1, “COMPOUNDS FOR IMPROVED VIRAL TRANSDUCTION” (BLUEBIRD BIO, INC., priority 2012, published 2015):

How the values were obtained:
HSCs = conditions: published data, Goessling et al., Cell Stem Cell 2011; cited from earlier work
CD34+ cells [1] = assay: Vector Copy Number analysis (qRT-PCR, viral LTR vs human beta-actin) after GFP+ lentivirus transduction; assay type: cell-based
Method: (§1) Pre-stimulated cells (Example 1) were counted after 18-24 hours of culture. The cells were collected and spun for 5 minutes at 1500 RPM. 1.2×10^6 pre-stimulated CD34^+ cells were resuspended in 60 uL 10× cytokines (1000 ng/mL SCF, 1000 ng/mL TPO, 1000 ng/mL FltL, and 300 ng/mL IL-3), 7.8 uL protamine sulfate, 111 uL viral supernatant, and 361.2 uL SCGM. 90 uL cell/virus suspension (about 200,000 cells) was added to each well of a standard non-adherent 96-well plate. dmPGE2 was added during this viral transduction step at a final concentration of 100 uM, 50 uM, 25 uM, 12.5 uM, 1 uM, or 0 uM.
(§2) After 24 hours of culture with virus and dmPGE2, cells were washed prior to subsequent functional validation assays. Washing was performed by transferring cells to a 96-well U-bottom plate and spinning for 5 minutes at 1500 RPM in a standard tabletop centrifuge. Media was aspirated and cells were resuspended in 200 uL SCGM. Cells were spun again for 5 minutes at 1500 RPM and media was aspirated. Cells were again resuspended in 200 uL SCGM then spun for 5 minutes at 1500 RPM, and again the media was aspirated. Particular functional validation assays are described below.
(§3) Washed cells were resuspended in 200 uL SCGM+lx cytokines (as described in Example 1) and transferred to a standard 12-well non-adherent tissue culture plate containing an additional 800 uL SCGM+lx cytokines Cells were maintained for an additional 6 days in a standard humidified tissue culture incubator (5% CO2) and then subjected Vector Copy Number analysis (Example 5) and FACS analysis. For FACS analysis, cells were assayed for the presence of a virally-encoded transgene, green fluorescent protein (GFP). The frequency of the virally-labeled cells within the pool of cultured cells was quantified as the frequency of GFP+ cells within the population. The mean fluorescence intensity of labeled cells was quantified.
Briefly, total genomic DNA was isolated from cells through standard protocols (for example, through DNEasy columns from Qiagen). Genomic DNA was subjected to quantitative real-time polymerase chain reaction (qRT-PCR) with TaqMan probes for viral LTR and human beta-actin. The Ct values for viral signal and beta-actin signal were normalized to a standardized control, and the number of viral copies per copy of beta actin were calculated. A linear relationship between the vector copy number and the mean fluorescence intensity (Example 4) was observed when a viral construct that encodes GFP was used.
(§4) Tables 3A-C indicate the dose-response of dmPGE2 in promoting viral transduction of CD34+ cells for three separate experiments. CD34+ cells were thawed and pre-stimulated with SCF, TPO, FltL, and IL3, then transduced (A) with GFP+ lentivirus at a multiplicity of infection of 25, (B) with GFP+ lentivirus at a multiplicity of infection of 5, or (C) transduced with an ALD (ABCD1)-expressing lentivirus at a multiplicity of infection of 25. Cells were exposed to dmPGE2 during the viral transduction step (24-48 hours of culture). Cells were then washed and analyzed by flow cytometry and PCR after approximately 1 week in culture. The percentage of cells positive for GFP (A, B) or ALD (C) via FACS staining is indicated, along with the mean fluorescent intensity (MFI) and vector copy number (VCN) (A, B).

CD34+ cells [2] = assay: 7-Day liquid culture, FACS analysis after transduction with GFP+ lentivirus; assay type: cell-based, human
Method: (§5) One vial of CD34+ cells (AllCells) were thawed by incubating at 37° C. for 1-2 minutes and contents were transferred to 10 mL Stem Cell Growth Media (hereafter referred to as SCGM) in a 15-mL conical tube. Cells were spun for 5 minutes at 1500 RPM in a standard tabletop centrifuge, resuspended in 10 mL SCGM and counted on a hemacytometer. A volume correlating with an appropriate number of cells was transferred to a fresh 15-mL conical tube, and again spun for 5 minutes at 1500 RPM. Cells were resuspended to the desired cell concentration in SCGM+1× cytokines (100 ng/mL SCF, 100 ng/mL TPO, 100 ng/mL FltL, and 30 ng/mL IL-3), and plated on a sterile non-adherent surface at 37° C. in a standard humidified tissue culture incubator (5% CO2).
as §1
Cells were incubated at 37° C. in a standard humidified tissue culture incubator (5% CO2).
Aliquots of 10 mM dmPGE2 in DMSO were prepared from 1 mg previously processed dmPGE2 (Cayman Chemicals). Briefly, air was pipetted into the vial of dmPGE2 until methyl acetate was evaporated. 263 uL DMSO was added to the PGE2 remaining in the vial, and aliquots of 25 uL were added to 1.5 mL Eppendorf tubes and stored at −80° C. 10× working stock solutions were prepared by serial dilution of dmPGE2 in SCGM, and were then added to cells at appropriate working concentrations, according to Table 2. Cells were then incubated at 37° C. in a standard humidified tissue culture incubator (5% CO2).
as §2, §3
as §4, with “The percentage of cells positive for GFP (A, B) or ALD (C) via FACS staining is indicated, along with the mean fluorescent intensity (MFI) and vector copy number (VCN) (A, B).” left out

CD34+ cells [3] = assay: FACS staining after transduction with ALD (ABCD1)-expressing lentivirus; assay type: cell-based, human; conditions: ABCD1 lentivirus MOI 25
Method: as §5, §1, §2, §3, §4

[4] = dmPGE2 12.5 uM during transduction, GFP lentivirus MOI 5
[5] = dmPGE2 12.5 uM during transduction, GFP lentivirus MOI 25
[6] = dmPGE2 25 uM during transduction, GFP lentivirus MOI 5
[7] = dmPGE2 25 uM during transduction, GFP lentivirus MOI 25
[8] = dmPGE2 50 uM during transduction, GFP lentivirus MOI 5
[9] = dmPGE2 50 uM during transduction, GFP lentivirus MOI 25
[10] = dmPGE2 100 uM during transduction, GFP lentivirus MOI 5
[11] = dmPGE2 100 uM during transduction, GFP lentivirus MOI 25

## CCCCC(C)(C)[C@H](O)/C=C/[C@H]1[C@H](O)CC(=O)[C@@H]1C/C=C\CCCC(=O)O [dmPGE2, 16,16-dimethyl PGE2]
HSCs
  promotion of viral transduction of HSCs: unable to promote viral transduction of HSCs
CD34+ cells [1]; [4]
  VCN: 0.18
CD34+ cells [1]; [5]
  VCN: 1.5
CD34+ cells [1]; [6]
  VCN: 0.21
CD34+ cells [1]; [7]
  VCN: 1.7
CD34+ cells [1]; [8]
  VCN: 0.715
CD34+ cells [1]; [9]
  VCN: 2.2
CD34+ cells [1]; [10]
  VCN: 0.83
CD34+ cells [1]; [11]
  VCN: 3.55
CD34+ cells [2]; dmPGE2 12.5 uM during transduction (24-48 hours of culture), GFP lentivirus MOI 5
  % Positive (GFP): 17.84%
CD34+ cells [2]; dmPGE2 12.5 uM during transduction (24-48 hours of culture), GFP lentivirus MOI 25
  % Positive (GFP): 54.71%
CD34+ cells [2]; [4]
  MFI: 530,218.50
CD34+ cells [2]; [5]
  MFI: 759,442.75
CD34+ cells [2]; dmPGE2 25 uM during transduction (24-48 hours of culture), GFP lentivirus MOI 5
  % Positive (GFP): 18.69%
CD34+ cells [2]; dmPGE2 25 uM during transduction (24-48 hours of culture), GFP lentivirus MOI 25
  % Positive (GFP): 59.99%
CD34+ cells [2]; [6]
  MFI: 562,428.00
CD34+ cells [2]; [7]
  MFI: 845,691.00
CD34+ cells [2]; dmPGE2 50 uM during transduction (24-48 hours of culture), GFP lentivirus MOI 5
  % Positive (GFP): 36.80%
CD34+ cells [2]; dmPGE2 50 uM during transduction (24-48 hours of culture), GFP lentivirus MOI 25
  % Positive (GFP): 67.62%
CD34+ cells [2]; [8]
  MFI: 656,703.50
CD34+ cells [2]; [9]
  MFI: 977,806.75
CD34+ cells [2]; dmPGE2 100 uM during transduction (24-48 hours of culture), GFP lentivirus MOI 5
  % Positive (GFP): 42.97%
CD34+ cells [2]; dmPGE2 100 uM during transduction (24-48 hours of culture), GFP lentivirus MOI 25
  % Positive (GFP): 81.53%
CD34+ cells [2]; [10]
  MFI: 732,716.25
CD34+ cells [2]; [11]
  MFI: 1,513,504.00
CD34+ cells [3]; dmPGE2 1 uM during transduction (24-48 hours of culture)
  % Positive (ALD): 34.13%
CD34+ cells [3]; dmPGE2 12.5 uM during transduction (24-48 hours of culture)
  % Positive (ALD): 45.36%
CD34+ cells [3]; dmPGE2 25 uM during transduction (24-48 hours of culture)
  % Positive (ALD): 43.76%
CD34+ cells [3]; dmPGE2 50 uM during transduction (24-48 hours of culture)
  % Positive (ALD): 56.10%
CD34+ cells [3]; dmPGE2 100 uM during transduction (24-48 hours of culture)
  % Positive (ALD): 72.26%
